Key:
[1] = limosilactobacillus reuteri cf48-3a, 12 h, 2 µM
Description: The drug is tested on Lactobacillus reuteri CF48-3A strain: BEI HM-102 for biotransformation. The drug concentrations were measured before and after a 12-h incubation by liquid-chromatography-coupled mass spectrometry (LC–MS)

[2] = The drug is tested on Clostridium symbiosum strain: ATCC14940 for biotransformation. The drug concentrations were measured before and after a 12-h incubation by liquid-chromatography-coupled mass spectrometry (LC–MS); conditions: 2 µM
[3] = The drug is tested on Eubacterium ventriosum strain: ATCC27560 for biotransformation. The drug concentrations were measured before and after a 12-h incubation by liquid-chromatography-coupled mass spectrometry (LC–MS); type: ADME; design: dose 2 uM, timepoint 0 vs 12 hours; conditions: 2 µM
[4] = The drug is tested on Coprococcus comes strain: ATCC27758 for biotransformation. The drug concentrations were measured before and after a 12-h incubation by liquid-chromatography-coupled mass spectrometry (LC–MS); type: ADME; design: dose 2 uM, timepoint 0 vs 12 hours; conditions: 2 µM
[5] = The drug is tested on Eubacterium hallii strain: DSM3353 for biotransformation. The drug concentrations were measured before and after a 12-h incubation by liquid-chromatography-coupled mass spectrometry (LC–MS); conditions: anaerobutyricum hallii, 2 µM
[6] = The drug is tested on Bacteroides coprophilus strain: DSM18228 for biotransformation. The drug concentrations were measured before and after a 12-h incubation by liquid-chromatography-coupled mass spectrometry (LC–MS); conditions: 2 µM
[7] = bacteroides thetaiotaomicron, 12 h, 2 µM
Description: The drug is tested on Bacteroides thetaiotaomicron strain: VPI-5482 for biotransformation. The drug concentrations were measured before and after a 12-h incubation by liquid-chromatography-coupled mass spectrometry (LC–MS)

[8] = bacteroides thetaiotaomicron, 12 h, 2 µM; remark: listed apart in the source
Description: The drug is tested on Bacteroides thetaiotaomicron strain: 3731 for biotransformation. The drug concentrations were measured before and after a 12-h incubation by liquid-chromatography-coupled mass spectrometry (LC–MS)

[9] = The drug is tested on Ruminococcus gnavus strain: ATCC29149 for biotransformation. The drug concentrations were measured before and after a 12-h incubation by liquid-chromatography-coupled mass spectrometry (LC–MS); conditions: mediterraneibacter gnavus, 2 µM
[10] = anaerostipes sp., 12 h, 2 µM
Description: The drug is tested on Anaerostipes sp. strain: fecal isolate for biotransformation. The drug concentrations were measured before and after a 12-h incubation by liquid-chromatography-coupled mass spectrometry (LC–MS)

[11] = The drug is tested on Ruminococcus torques strain: ATCC27756 for biotransformation. The drug concentrations were measured before and after a 12-h incubation by liquid-chromatography-coupled mass spectrometry (LC–MS); type: ADME; design: dose 2 uM, timepoint 0 vs 12 hours; conditions: 2 µM
[12] = The drug is tested on Bacteroides dorei strain: DSM17855 for biotransformation. The drug concentrations were measured before and after a 12-h incubation by liquid-chromatography-coupled mass spectrometry (LC–MS); conditions: phocaeicola dorei, 2 µM
[13] = The drug is tested on Bacteroides finegoldii strain: DSM17565 for biotransformation. The drug concentrations were measured before and after a 12-h incubation by liquid-chromatography-coupled mass spectrometry (LC–MS); conditions: 2 µM
[14] = The drug is tested on Ruminococcus lactaris strain: ATCC29176 for biotransformation. The drug concentrations were measured before and after a 12-h incubation by liquid-chromatography-coupled mass spectrometry (LC–MS); conditions: 2 µM
[15] = The drug is tested on Subdoligranulum variabile strain: DSM15176 for biotransformation. The drug concentrations were measured before and after a 12-h incubation by liquid-chromatography-coupled mass spectrometry (LC–MS); conditions: 2 µM
[16] = The drug is tested on Blautia luti strain: DSM14534 for biotransformation. The drug concentrations were measured before and after a 12-h incubation by liquid-chromatography-coupled mass spectrometry (LC–MS); type: ADME; design: dose 2 uM, timepoint 0 vs 12 hours; conditions: 2 µM
[17] = bacteroides fragilis, 12 h, 2 µM
Description: The drug is tested on Bacteroides fragilis strain: 3397 (T10) for biotransformation. The drug concentrations were measured before and after a 12-h incubation by liquid-chromatography-coupled mass spectrometry (LC–MS)

[18] = segatella copri, 12 h, 2 µM
Description: The drug is tested on Prevotella copri strain: DSM18205 for biotransformation. The drug concentrations were measured before and after a 12-h incubation by liquid-chromatography-coupled mass spectrometry (LC–MS)

[19] = enterocloster bolteae, 12 h, 2 µM
Description: The drug is tested on Clostridium bolteae strain: ATCCBAA-613 for biotransformation. The drug concentrations were measured before and after a 12-h incubation by liquid-chromatography-coupled mass spectrometry (LC–MS)

[20] = bacteroides fragilis, 12 h, 2 µM; remark: listed apart in the source
Description: The drug is tested on Bacteroides fragilis strain: NCTC 9343 for biotransformation. The drug concentrations were measured before and after a 12-h incubation by liquid-chromatography-coupled mass spectrometry (LC–MS)

[21] = The drug is tested on Clostridium scindens strain: ATCC35704 for biotransformation. The drug concentrations were measured before and after a 12-h incubation by liquid-chromatography-coupled mass spectrometry (LC–MS); conditions: 2 µM
[22] = The drug is tested on Clostridium ramosum strain: DSM1402 for biotransformation. The drug concentrations were measured before and after a 12-h incubation by liquid-chromatography-coupled mass spectrometry (LC–MS); conditions: thomasclavelia ramosa, 2 µM
[23] = parabacteroides distasonis, 12 h, 2 µM
Description: The drug is tested on Parabacteroides distasonis strain: ATCC8503 for biotransformation. The drug concentrations were measured before and after a 12-h incubation by liquid-chromatography-coupled mass spectrometry (LC–MS)

[24] = The drug is tested on Bacteroides uniformis strain: ATCC8492 for biotransformation. The drug concentrations were measured before and after a 12-h incubation by liquid-chromatography-coupled mass spectrometry (LC–MS); conditions: 2 µM
[25] = bacteroides stercoris, 12 h, 2 µM
Description: The drug is tested on Bacteroides stercoris strain: ATCC43183 for biotransformation. The drug concentrations were measured before and after a 12-h incubation by liquid-chromatography-coupled mass spectrometry (LC–MS)

[26] = The drug is tested on Bacteroides sp. WH2 strain: WH2 for biotransformation. The drug concentrations were measured before and after a 12-h incubation by liquid-chromatography-coupled mass spectrometry (LC–MS); conditions: bacteroides sp. wh2, 12 h, 2 µM
[27] = parabacteroides johnsonii, 12 h, 2 µM
Description: The drug is tested on Parabacteroides johnsonii strain: DSM18315 for biotransformation. The drug concentrations were measured before and after a 12-h incubation by liquid-chromatography-coupled mass spectrometry (LC–MS)

[28] = The drug is tested on Clostridium asparagiforme strain: DSM15981 for biotransformation. The drug concentrations were measured before and after a 12-h incubation by liquid-chromatography-coupled mass spectrometry (LC–MS); type: ADME; design: dose 2 uM, timepoint 0 vs 12 hours; conditions: enterocloster asparagiformis, 2 µM
[29] = The drug is tested on Odoribacter splanchnicus strain: fecal isolate for biotransformation. The drug concentrations were measured before and after a 12-h incubation by liquid-chromatography-coupled mass spectrometry (LC–MS); conditions: 2 µM
[30] = The drug is tested on Anaerotruncus colihominis strain: DSM17241 for biotransformation. The drug concentrations were measured before and after a 12-h incubation by liquid-chromatography-coupled mass spectrometry (LC–MS); conditions: 2 µM
[31] = The drug is tested on Eggerthella lenta strain: ATCC25559 for biotransformation. The drug concentrations were measured before and after a 12-h incubation by liquid-chromatography-coupled mass spectrometry (LC–MS); conditions: 2 µM
[32] = The drug is tested on Bacteroides pectinophilus strain: ATCC43243 for biotransformation. The drug concentrations were measured before and after a 12-h incubation by liquid-chromatography-coupled mass spectrometry (LC–MS); conditions: 2 µM
[33] = The drug is tested on Collinsella intestinalis strain: DSM13280 for biotransformation. The drug concentrations were measured before and after a 12-h incubation by liquid-chromatography-coupled mass spectrometry (LC–MS); conditions: 2 µM
[34] = The drug is tested on Bifidobacterium longum subsp. Infantis strain: CCUG52486 for biotransformation. The drug concentrations were measured before and after a 12-h incubation by liquid-chromatography-coupled mass spectrometry (LC–MS); conditions: 2 µM
[35] = bacteroides intestinalis, 12 h, 2 µM
Description: The drug is tested on Bacteroides intestinalis strain: DSM17393 for biotransformation. The drug concentrations were measured before and after a 12-h incubation by liquid-chromatography-coupled mass spectrometry (LC–MS)

[36] = The drug is tested on Escherichia coli strain: BW25113 for biotransformation. The drug concentrations were measured before and after a 12-h incubation by liquid-chromatography-coupled mass spectrometry (LC–MS); conditions: 2 µM
[37] = The drug is tested on Bacteroides caccae strain: ATCC43185 for biotransformation. The drug concentrations were measured before and after a 12-h incubation by liquid-chromatography-coupled mass spectrometry (LC–MS); conditions: 2 µM

For `CC#CCn1c(N2CCC[C@@H](N)C2)nc2c1c(=O)n(Cc1nc(C)c3ccccc3n1)c(=O)n2C` [LINAGLIPTIN], the “Bacterial Biotransformation” value [1] was “Compound NOT metabolized”, the “Bacterial Biotransformation” value [2] was “Compound NOT metabolized” and the “Bacterial Biotransformation” value [3] was “Compound NOT metabolized”. For the same compound, the “Bacterial Biotransformation” value [4] was “Compound NOT metabolized”, the “Bacterial Biotransformation” value [5] was “Compound NOT metabolized” and the “Bacterial Biotransformation” value [6] was “Compound metabolized”. For the same compound, the “Bacterial Biotransformation” value [7] was “Compound metabolized”, the “Bacterial Biotransformation” value [8] was “Compound metabolized” and the “Bacterial Biotransformation” value [9] was “Compound NOT metabolized”. For the same compound, the “Bacterial Biotransformation” value [10] was “Compound NOT metabolized”, the “Bacterial Biotransformation” value [11] was “Compound NOT metabolized” and the “Bacterial Biotransformation” value [12] was “Compound metabolized”. The “Bacterial Biotransformation” value [13] was “Compound metabolized”, the “Bacterial Biotransformation” value [14] was “Compound NOT metabolized” and the “Bacterial Biotransformation” value [15] was “Compound NOT metabolized”. The “Bacterial Biotransformation” value [16] was “Compound NOT metabolized”, the “Bacterial Biotransformation” value [17] was “Compound metabolized” and the “Bacterial Biotransformation” value [18] was “Compound metabolized”. The “Bacterial Biotransformation” value [19] was “Compound NOT metabolized”, the “Bacterial Biotransformation” value [20] was “Compound metabolized” and the “Bacterial Biotransformation” value [21] was “Compound NOT metabolized”. The “Bacterial Biotransformation” value [22] was “Compound NOT metabolized”, the “Bacterial Biotransformation” value [23] was “Compound metabolized” and the “Bacterial Biotransformation” value [24] was “Compound metabolized”. The “Bacterial Biotransformation” value [25] was “Compound metabolized”, the “Bacterial Biotransformation” value [26] was “Compound NOT metabolized” and the “Bacterial Biotransformation” value [27] was “Compound metabolized”. For the same compound, the “Bacterial Biotransformation” value [28] was “Compound NOT metabolized”, the “Bacterial Biotransformation” value [29] was “Compound metabolized” and the “Bacterial Biotransformation” value [30] was “Compound NOT metabolized”. The “Bacterial Biotransformation” value [31] was “Compound NOT metabolized”, the “Bacterial Biotransformation” value [32] was “Compound NOT metabolized” and the “Bacterial Biotransformation” value [33] was “Compound NOT metabolized”. For the same compound, the “Bacterial Biotransformation” value [34] was “Compound NOT metabolized”, the “Bacterial Biotransformation” value [35] was “Compound metabolized” and the “Bacterial Biotransformation” value [36] was “Compound NOT metabolized”. The “Bacterial Biotransformation” value [37] was “Compound metabolized”.

From ChEMBL document CHEMBL5303573, “Mapping human microbiome drug metabolism by gut bacteria and their genes” (Nature, 2019)
